Columns and labels:
[1] = tested on: senescent cells in human tissue sections (irradiated laryngeal, chemotherapy-treated breast, aged liver); experiment: Detection of senescent cells in tissue sections by fluorescent microscopy, human clinical settings; details: chemotherapy-treated breast tissues, liver specimens from aged individuals versus respective controls, FFPE sections
Source text: (§1) 1-Ethyl-2-((E)-2-((E)-3-((E)-2-(1-ethyl-3,3-dimethylindolin-2-ylidene)ethylidene)-2-((4-(4-((2-methyl-6-((E)-(4-((E)-phenyldiazenyl)naphthalen-1-yl)diazenyl)-2,3-dihydro-1H-perimidin-2-yl)methoxy)-4-oxobutanamido)butyl)amino)cyclohex-1-en-1-yl)vinyl)-3,3-dimethyl-3H-indol-1-ium iodide (15, Scheme 2, Example 2) was used to detect senescent cells in tissue sections by fluorescent microscopy.
(§2) Tissue sections were obtained from paraffin embedded, formalin fixed of: (A) irradiated human laryngeal tumors, (B) chemotherapy-treated breast tissues, (C) liver specimens from aged versus young individuals, (D) K-ras^V12 induced lung adenomas, (E) Palbociclib-treated human melanoma xenografts, and (F) Bleomycin-induced lung fibrosis mouse model, with established presence of senescent cells. Subsequently, they were immobilized on glass microscopy slides by standard procedures and processed as follows: • i. Section deparaffinization through a 30 minutes incubation at 60° C., followed by washing in xylene for 15 minutes at room temperature. • ii. Gradual rehydration of biopsy material, usually fixed tissues, in solutions of descending concentration of ethanol (100%, 96%, 80%, 70%, 50% v/v) for 5 minutes each step and finally in Phosphate-buffered saline (PBS) buffering solution; • iii. Antigen retrieval by heating in citrate acid solution 10 mM, pH=6. […]

[2] = tested on: HBEC CDC6 Tet-ON cells; experiment: Detection of senescent cells in cell cultures by fluorescent microscopy; format: cell-based
Protocol: (§3) 1-Ethyl-2-((E)-2-((E)-3-((E)-2-(1-ethyl-3,3-dimethylindolin-2-ylidene)ethylidene)-2-((4-(4-((2-methyl-6-((E)-(4-((E)-phenyldiazenyl)naphthalen-1-yl)diazenyl)-2,3-dihydro-1H-perimidin-2-yl)methoxy)-4-oxobutanamido)butyl)amino)cyclohex-1-en-1-yl)vinyl)-3,3-dimethyl-3H-indol-1-ium iodide (15, Scheme 2, Example 2) was used to detect senescent cells in cell spreads using fluorescent microscopy (FIG. 1).
(§4) Li-Fraumeni-p21^WAF1/Cip1 or HBEC-CDC6 Tet-ON cellular systems were grown on cover slips and collected before and after the mentioned respective treatments for induction of senescence. Cover slips were treated as follows: • a) Cell spreads, immobilized preferably on a microscopy coverslip, are fixed in 4% paraformaldehyde (PFA) for 10 minutes at 4° C.; • b) Wash with PBS; • c) Cell membrane permeabilization: Immerse coverslips in solution of 0.3% Triton-X 100 diluted in PBS for 15 minutes; • d) Wash with PBS; • e) Apply compound of formula I on cells for 10 minutes in dark conditions; • f) Wash 3 times with fresh wash buffer [PBS/DMSO (2.5%)/TWEEN-20 (2.5%)]; • g) Incubate cells with 0.3% Triton-X 100 diluted in PBS for 3 minutes; • h) Wash with PBS; • i) Apply DAPI 1/5000 for 5 minutes in dark condition; • j) Rinse samples with dH2O for 30 seconds; • k) Cover section using a mounting medium for immunofluorescence.

[3] = tested on: Li-Fraumeni-p21^WAF1/Cip1 Tet-ON cells; experiment: as above; format: cell-based
Protocol: as §3, §4

[4] = tested on: HBEC CDC6 Tet-ON cells; experiment: Detection by flow cytometry of senescent cells in cell culture; format: cell-based; details: with or without Doxycycline; anti-Ki67-Pacific blue only (HBEC cells do not express p16^INK4A)
Protocol: (§5) 1-Ethyl-2-((E)-2-((E)-3-((E)-2-(1-ethyl-3,3-dimethylindolin-2-ylidene)ethylidene)-2-((4-(4-((2-methyl-6-((E)-(4-((E)-phenyldiazenyl)naphthalen-1-yl)diazenyl)-2,3-dihydro-1H-perimidin-2-yl)methoxy)-4-oxobutanamido)butyl)amino)cyclohex-1-en-1-yl)vinyl)-3,3-dimethyl-3H-indol-1-ium iodide (15, Scheme 2, Example 2) was used to detect senescent cultured cells by flow cytometry.
(§6) Li-Fraumeni-p21^WAF1/Cip1 or HBEC-CDC6 Tet-ON cellular systems were grown in culture without or with Doxycyclin to induce senescence. Subsequently cells were treated and assessed as follows: • 1. Harvest cells from culture. • 2. Centrifuge at 1200 rpm for 5 min at RT. • 3. Wash ×1 in 5 ml PBS at RT. • 4. Resuspend cell pellet in 4% PFA and incubate them for 15 min in RT (fixation) • 5. Centrifuge at 1200 rpm for 5 min at RT. • 6. Resuspend cell pellet in 0.3% Triton-X/PBS and incubate it for 15 min at RT. • 7. Wash ×1 in 2 ml PBS at RT • 8. Centrifuge at 1200 rpm for 5 min at RT. • 9. Incubate samples with 100 μl of GLF16 for 8 min under gently shaking in dark condition • 10. Add 2 ml of wash buffer [PBS/DMSO (2.5%)/TWEEN-20 (2.5%)] and centrifuge at 1200 rpm for 5 min at RT (×2) • 11. Incubate with primary-conjugated antibody/ies for 20 min RT • 12. Centrifuge at 1200 rpm for 5 min at RT (×2) • 13. Apply flow cytometry buffer (PBS/5% FBS)

[5] = tested on: Li-Fraumeni-p21^WAF1/Cip1 Tet-ON cells; experiment: as above; format: cell-based; details: with or without Doxycycline; anti-Ki67-Pacific blue and anti-p16^INK4A-APC; 3 independent experiments
Protocol: as §5, §6

[6] = tested on: senescent cells in tissue sections of murine models (K-ras^V12-induced lung adenomas, palbociclib-treated human melanoma xenografts, bleomycin-induced lung …); experiment: Detection of senescent cells in tissue sections by fluorescent microscopy, murine models; details: bleomycin-treated lungs
Source text: as §1, §2

Compound: CCN1/C(=C/C=C2\CCCC(/C=C/C3=[N+](CC)c4ccccc4C3(C)C)=C2NCCCCNC(=O)CCC(=O)OCC2(C)Nc3cccc4c(/N=N/c5ccc(/N=N/c6ccccc6)c6ccccc56)ccc(c34)N2)C(C)(C)c2ccccc21 (stereo not shown) [GLF16, 1-ethyl-2-((E)-2-((E)-3-((E)-2-(1-ethyl-3,3-dimethylindolin-2-ylidene)ethylidene)-2-((4-(4-((2-methyl-6-((E)-(4-((E)-phenyldiazenyl)naphthalen-1-yl)diazenyl)-2,3-dihydro-1H-perimidin-2-yl)methoxy)-4-oxobutanamido)butyl)amino)cyclohex-1-en-1-yl)vinyl)-3,3-dimethyl-3H-indol-1-ium iodide]
- GLF16-positive cells in tissue [1]: abundant in GLF16-positive cells while in respective controls these positive cells were totally absent
- specificity: co-staining with p21^WAF1/Cip and Ki67 ([2]; (+) Doxycycline, FIG. 2 panels F, G): concordant staining presence of the senescence associated factors
- staining of senescent cells ([2]; FIG. 2 panel E, (-) Doxycycline as negative control): successful application
- specificity: co-staining with p16^INK4A and Ki67 ([3]; (+) Doxycycline, FIG. 2 panels B, C): concordant staining presence of the senescence associated factors
- co-staining with the proliferative marker Ki67 ([3]; FIG. 2C): inverse relationship between GLF16 and Ki67 positivity
- GLF16 staining signal ([3]; cells treated or not with Doxycycline for 6-8 days, fixed, permeabilized, confocal microscope): intense cytoplasmic signal (corresponding to lipofuscin aggregates) abundant in senescent cells and entirely absent in untreated ones
- co-detection of GLF16 with senescence markers in gated GLF16 (+) and (-) cells [4]: co-detection of GLF16 and senescence markers (p16^INK4A and absence of Ki67) in the senescent population (induced cells)
- co-detection of GLF16 with senescence markers in gated GLF16 (+) and (-) cells [5]: co-detection of GLF16 and senescence markers (p16^INK4A and absence of Ki67) in the senescent population (induced cells)
- concurrent staining with Ki67, p21^WAF1/Cip1 and p16^INK4A ([6]; FIG. 3 G-I, tissue per panel not stated except H): coincided with p16^INKA4 or p21^WAF1/Cip1 but not with Ki67
- GLF16 (lipofuscin) positive macrophages ([6]; FIG. 3H): positive macrophages in bleomycin-treated lungs are also evident
